# In PubChem BioAssay AID1918998 (Molecular Pharmacology Branch, DTP, NCI, 2023):
# pIC50: −log10 of the molar value.
# Tested on: 521955-158-R2-J5-PDC complex spheroid growth
# Assay: Anticancer human tumor 521955-158-R2-J5-PDC patient-derived pancreatic carcinoma cell line growth inhibition [AhR]
# Settings: for pIC50: curve of first compound; for viability, T/C: stronger effect = lower value
# How it was run: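 Agents were dosed in half-log steps down from roughly clinical Cmax, or from 10 microM where Cmax was unknown, alone and with AhR antagonists. Read-out: percent test/control growth of tumor spheroids containing HUVEC and MSC stromal cells.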
# [1] = second compound 0.1 µM, first compound 0.0316 µM
# [2] = second compound 0.1 µM, first compound 0.1 µM
# [3] = second compound 0.1 µM, first compound 0.316 µM
# [4] = second compound 0.1 µM, first compound 1 µM
# [5] = second compound 0.1 µM, first compound 3.16 µM
# [6] = second compound 0.1 µM, first compound 10 µM
# [7] = second compound 0.316 µM, first compound 0.0316 µM
# [8] = second compound 0.316 µM, first compound 0.1 µM
# [9] = second compound 0.316 µM, first compound 0.316 µM
# [10] = second compound 0.316 µM, first compound 1 µM
# [11] = second compound 0.316 µM, first compound 3.16 µM
# [12] = second compound 0.316 µM, first compound 10 µM
# [13] = second compound 1 µM, first compound 0.0316 µM
# [14] = second compound 1 µM, first compound 0.1 µM
# [15] = second compound 1 µM, first compound 0.316 µM
# [16] = second compound 1 µM, first compound 1 µM
# [17] = second compound 1 µM, first compound 3.16 µM
# [18] = second compound 1 µM, first compound 10 µM
# [19] = second compound 3.16 µM, first compound 0.0316 µM
# [20] = second compound 3.16 µM, first compound 0.1 µM
# [21] = second compound 3.16 µM, first compound 0.316 µM
# [22] = second compound 3.16 µM, first compound 1 µM
# [23] = second compound 3.16 µM, first compound 3.16 µM
# [24] = second compound 3.16 µM, first compound 10 µM
# [25] = second compound 10 µM, first compound 0.0316 µM
# [26] = second compound 10 µM, first compound 0.1 µM
# [27] = second compound 10 µM, first compound 0.316 µM
# [28] = second compound 10 µM, first compound 1 µM
# [29] = second compound 10 µM, first compound 3.16 µM
# [30] = second compound 10 µM, first compound 10 µM
# 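For viability, T/C in this document: spheroids mix tumor cells with HUVEC endothelium and human MSC stroma; luminescence taken as viability surrogate after a week of drug exposure.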
compound,measurement,setting,value
CC(C)c1c(-c2ccccc2)nc2c(C#N)c[nH]n2c1=O + Cc1ccccc1N=Nc1ccc(NC(=O)c2ccnn2C)c(C)c1,pIC50,second compound 0.1 µM,< 5.00
same,pIC50,second compound 0.316 µM,< 5.00
same,pIC50,second compound 1 µM,< 5.00
same,pIC50,second compound 3.16 µM,< 5.00
same,pIC50,second compound 10 µM,< 5.00
same,"viability, T/C",[1],98.1%
same,"viability, T/C",[2],125%
same,"viability, T/C",[3],80.3%
same,"viability, T/C",[4],94.7%
same,"viability, T/C",[5],81.2%
same,"viability, T/C",[6],97.8%
same,"viability, T/C",[7],115%
same,"viability, T/C",[8],95.1%
same,"viability, T/C",[9],110%
same,"viability, T/C",[10],81.5%
same,"viability, T/C",[11],82%
same,"viability, T/C",[12],81.6%
same,"viability, T/C",[13],88.7%
same,"viability, T/C",[14],101%
same,"viability, T/C",[15],102%
same,"viability, T/C",[16],87.8%
same,"viability, T/C",[17],92.6%
same,"viability, T/C",[18],97.8%
same,"viability, T/C",[19],128%
same,"viability, T/C",[20],125%
same,"viability, T/C",[21],127%
same,"viability, T/C",[22],114%
same,"viability, T/C",[23],114%
same,"viability, T/C",[24],114%
same,"viability, T/C",[25],141%
same,"viability, T/C",[26],130%
same,"viability, T/C",[27],132%
same,"viability, T/C",[28],123%
same,"viability, T/C",[29],114%
same,"viability, T/C",[30],103%
CC1COCCN1c1cc(-c2ccnn2C)c2ccnc(-c3ccn[nH]3)c2n1 (stereo not given) + Cc1ccccc1N=Nc1ccc(NC(=O)c2ccnn2C)c(C)c1,pIC50,second compound 0.1 µM,6.83
same,pIC50,second compound 0.316 µM,6.81
same,pIC50,second compound 1 µM,6.82
same,pIC50,second compound 3.16 µM,6.84
same,pIC50,second compound 10 µM,7.00
same,"viability, T/C","second compound 0.1 µM, first compound 0.00316 µM",128%
same,"viability, T/C","second compound 0.1 µM, first compound 0.01 µM",116%
same,"viability, T/C",[1],122%
same,"viability, T/C",[2],66.6%
same,"viability, T/C",[3],19.4%
same,"viability, T/C",[4],17.9%
same,"viability, T/C","second compound 0.316 µM, first compound 0.00316 µM",122%
same,"viability, T/C","second compound 0.316 µM, first compound 0.01 µM",116%
same,"viability, T/C",[7],127%
same,"viability, T/C",[8],70%
same,"viability, T/C",[9],17.9%
same,"viability, T/C",[10],15.2%
same,"viability, T/C","second compound 1 µM, first compound 0.00316 µM",123%
same,"viability, T/C","second compound 1 µM, first compound 0.01 µM",138%
same,"viability, T/C",[13],109%
same,"viability, T/C",[14],71%
same,"viability, T/C",[15],14.2%
same,"viability, T/C",[16],13.8%
same,"viability, T/C","second compound 3.16 µM, first compound 0.00316 µM",144%
same,"viability, T/C","second compound 3.16 µM, first compound 0.01 µM",131%
same,"viability, T/C",[19],145%
same,"viability, T/C",[20],66.4%
same,"viability, T/C",[21],13.4%
same,"viability, T/C",[22],14.2%
same,"viability, T/C","second compound 10 µM, first compound 0.00316 µM",134%
same,"viability, T/C","second compound 10 µM, first compound 0.01 µM",154%
same,"viability, T/C",[25],108%
same,"viability, T/C",[26],54.5%
same,"viability, T/C",[27],12.4%
same,"viability, T/C",[28],15.4%
CC1COCCN1c1cc(C2(S(C)(=N)=O)CC2)nc(-c2ccnc3[nH]ccc23)n1 (stereo not given) + Cc1ccccc1N=Nc1ccc(NC(=O)c2ccnn2C)c(C)c1,pIC50,second compound 0.1 µM,5.69
same,pIC50,second compound 0.316 µM,5.63
same,pIC50,second compound 1 µM,5.60
same,pIC50,second compound 3.16 µM,5.60
same,pIC50,second compound 10 µM,5.59
same,"viability, T/C",[1],93.3%
same,"viability, T/C",[2],84.7%
same,"viability, T/C",[3],86.6%
same,"viability, T/C",[4],86.2%
same,"viability, T/C",[5],28.1%
same,"viability, T/C",[6],15.9%
same,"viability, T/C",[7],104%
same,"viability, T/C",[8],112%
same,"viability, T/C",[9],100%
same,"viability, T/C",[10],101%
same,"viability, T/C",[11],32.8%
same,"viability, T/C",[12],14%
same,"viability, T/C",[13],117%
same,"viability, T/C",[14],110%
same,"viability, T/C",[15],136%
same,"viability, T/C",[16],109%
same,"viability, T/C",[17],36.2%
same,"viability, T/C",[18],14.8%
same,"viability, T/C",[19],123%
same,"viability, T/C",[20],135%
same,"viability, T/C",[21],131%
same,"viability, T/C",[22],120%
same,"viability, T/C",[23],32.8%
same,"viability, T/C",[24],15.5%
same,"viability, T/C",[25],130%
same,"viability, T/C",[26],149%
same,"viability, T/C",[27],139%
same,"viability, T/C",[28],124%
same,"viability, T/C",[29],32.9%
same,"viability, T/C",[30],16.1%
COc1ccc([C@@H](O)c2cc(-c3ncnc4cc(N5CCOCC5)ccc34)c(F)cc2Cl)nn1 + Cc1ccccc1N=Nc1ccc(NC(=O)c2ccnn2C)c(C)c1,pIC50,second compound 0.1 µM,< 5.00
same,pIC50,second compound 0.316 µM,< 5.00
same,pIC50,second compound 1 µM,< 5.00
same,pIC50,second compound 3.16 µM,< 5.00
same,pIC50,second compound 10 µM,< 5.00
same,"viability, T/C",[1],116%
same,"viability, T/C",[2],98.5%
same,"viability, T/C",[3],75.9%
same,"viability, T/C",[4],78.1%
same,"viability, T/C",[5],67.1%
same,"viability, T/C",[6],48.3%
same,"viability, T/C",[7],98.8%
same,"viability, T/C",[8],96.3%
same,"viability, T/C",[9],93.5%
same,"viability, T/C",[10],89.9%
same,"viability, T/C",[11],72.8%
same,"viability, T/C",[12],56.6%
same,"viability, T/C",[13],109%
same,"viability, T/C",[14],133%
same,"viability, T/C",[15],108%
same,"viability, T/C",[16],97.2%
same,"viability, T/C",[17],84.4%
same,"viability, T/C",[18],59%
same,"viability, T/C",[19],139%
same,"viability, T/C",[20],117%
same,"viability, T/C",[21],128%
same,"viability, T/C",[22],101%
same,"viability, T/C",[23],91.3%
same,"viability, T/C",[24],54.3%
same,"viability, T/C",[25],142%
same,"viability, T/C",[26],136%
same,"viability, T/C",[27],142%
same,"viability, T/C",[28],105%
same,"viability, T/C",[29],88.9%
same,"viability, T/C",[30],49.9%
O=C(C=Cn1cnc(-c2cc(C(F)(F)F)cc(C(F)(F)F)c2)n1)NNc1cnccn1 + Cc1ccccc1N=Nc1ccc(NC(=O)c2ccnn2C)c(C)c1,pIC50,second compound 0.1 µM,7.40
same,pIC50,second compound 0.316 µM,> 8.02
same,pIC50,second compound 1 µM,7.73
same,pIC50,second compound 3.16 µM,> 8.02
same,pIC50,second compound 10 µM,6.85
same,"viability, T/C","second compound 0.1 µM, first compound 0.00949 µM",59%
same,"viability, T/C","second compound 0.1 µM, first compound 0.03 µM",50.4%
same,"viability, T/C","second compound 0.1 µM, first compound 0.0949 µM",41.2%
same,"viability, T/C","second compound 0.1 µM, first compound 0.3 µM",39.5%
same,"viability, T/C","second compound 0.1 µM, first compound 0.949 µM",40.2%
same,"viability, T/C","second compound 0.1 µM, first compound 3 µM",21.5%
same,"viability, T/C","second compound 0.316 µM, first compound 0.00949 µM",54.8%
same,"viability, T/C","second compound 0.316 µM, first compound 0.03 µM",43.1%
same,"viability, T/C","second compound 0.316 µM, first compound 0.0949 µM",39.3%
same,"viability, T/C","second compound 0.316 µM, first compound 0.3 µM",46.1%
same,"viability, T/C","second compound 0.316 µM, first compound 0.949 µM",40.8%
same,"viability, T/C","second compound 0.316 µM, first compound 3 µM",24.6%
same,"viability, T/C","second compound 1 µM, first compound 0.00949 µM",55.8%
same,"viability, T/C","second compound 1 µM, first compound 0.03 µM",42.6%
same,"viability, T/C","second compound 1 µM, first compound 0.0949 µM",45.1%
same,"viability, T/C","second compound 1 µM, first compound 0.3 µM",36.2%
same,"viability, T/C","second compound 1 µM, first compound 0.949 µM",38.4%
same,"viability, T/C","second compound 1 µM, first compound 3 µM",31.8%
same,"viability, T/C","second compound 3.16 µM, first compound 0.00949 µM",53.8%
same,"viability, T/C","second compound 3.16 µM, first compound 0.03 µM",51.4%
same,"viability, T/C","second compound 3.16 µM, first compound 0.0949 µM",47.6%
same,"viability, T/C","second compound 3.16 µM, first compound 0.3 µM",40.8%
same,"viability, T/C","second compound 3.16 µM, first compound 0.949 µM",50.2%
same,"viability, T/C","second compound 3.16 µM, first compound 3 µM",29.8%
same,"viability, T/C","second compound 10 µM, first compound 0.00949 µM",91%
same,"viability, T/C","second compound 10 µM, first compound 0.03 µM",66.2%
same,"viability, T/C","second compound 10 µM, first compound 0.0949 µM",47.6%
same,"viability, T/C","second compound 10 µM, first compound 0.3 µM",53.4%
same,"viability, T/C","second compound 10 µM, first compound 0.949 µM",38.2%
same,"viability, T/C","second compound 10 µM, first compound 3 µM",32.9%
